These results are taken from US7265155B2 (NBS Pharmaceuticals, Inc., priority 1996, dated 2007).

Type in all cases: in vivo
The nature of data set [1]: Rotarod motor impairment (toxicity) in the Frings mouse. Particulars: Frings, mouse, in vivo. The protocol: (§1) The average seizure score can be calculated for each group of mice employed in the dose-response study. At each dose, mice are also tested on a rotarod for testing of motor impairment (toxicity). Testing for motor impairment on the rotarod involves placing a mouse for a three-minute trial period on a one-inch diameter rod rotating at six revolutions per minute. If the mouse falls off of the rotating rod three times within the three-minute time period, it is considered a toxic response.

Another data set relates to Frings mouse. The data set is described as above. On the procedure: as §1
The subject of data set [2] is chronic spinalized rat. As to the kind of experiment: Flexor reflex (EMG) in the chronic spinalized rat. Particulars: 300 mg/kg p.o.; 30, 60, 90 and 120 minutes post-administration. On the procedure:
With reference to FIG. 3, the polysynaptic flexor-reflex responses, to test stimuli which activate high-threshold afferents, were recorded as EMG activity from the ipsilateral hamstring muscle. Supramaximal electric shocks were applied to the hindpaw, and recording electrodes were placed in the biceps femoris semitendinosus muscle. Five sets of stimuli were made at each time point. The flexor reflex was recorded, in both the pre-drug and the post-drug periods, every 30 minutes once a stable baseline response was achieved. See Hao et al., Eur. J. Pharmacol. 191: 407 (1990).
Thus, the responses were determined in spinalized rats by observing the flexor-reflex response (FIG. 3) before treatment and at each of 30, 60, 90, and 120 minutes following administration of isovaleramide (300 mg/kg p.o.), baclofen (10 mg/kg s.c.) and vehicle (water, 12 ml/kg p.o.), respectively.
In FIG. 4, the responses from FIG. 3 and additional doses of isovaleramide and baclofen are converted to a total-area-under-the-curve format, covering the entire, two-hour measurement period. […] Between the drug-treated groups, no differences were found in total reduction of the flexor reflex over the two-hour period (pairwise multiple comparison, Student-Newman-Keuls method).

The test system of data set [3] is chronic spinalized rat. Nature of the data set: Spasticity scores elicited by a metal probe in chronic spinally transected rats. The settings on record: 300 mg/kg i.p. The text has this: In these studies, male albino Holtzman-derived rats (Harlan Sprague-Dawley Laboratories) weighing 270-530 grams were used as subjects. The animals were housed independently and had continuous access to food and water throughout the experiments.
All procedures were reviewed and approved by the Institutional Animal Care and Use Committee. Animals were anesthetized using a mixture of isoflurane and oxygen at a flow rate of 4 liters/minute.
The rats were then placed in a stereotaxic frame and anesthesia was maintained. An incision was made so that the paraspinal muscles could be retracted and a laminectomy performed between T6-T9. A one- to two-millimeter portion of the spinal cord was removed by evacuation and replaced with Gel foam to reduce bleeding, after which the incision was closed in layers.
Following the transection, rats were placed in a room in which the ambient temperature was raised to about 80° F. with a space heater to maintain body temperature. On the following morning post-surgery, the hindquarters of the spinalized rats were bathed and their urine expressed manually by applying pressure to their bladders. Experiments were conducted between 21 and 28 days after surgery. For the first two weeks, these rats were given 0.25 ml of the antibiotic Sulfatrim Pediatric Suspension orally to prevent bladder infection.
Within approximately two weeks, all animals regained bladder control and were no longer given antibiotic treatment. Advokat, Brain Res. 684: 8 (1995). […]
Initial assessment of spasticity was performed by the subjective scoring method of rating the resulting spasticity response elicited with an innocuous stimulus, i.e., a metal probe, that was pressed against the lower abdomen at four specific sites. The spastic reaction was evaluated for each of the four trials using a scale ranging from zero (no spastic response in all four trials) to four (a maximum, tonic-clonic reaction elicited in all four trials). […] These raw or normalized scores were analyzed with a one-way repeated measures ANOVA.

Several values for one entry are separate records, joined by “and”; a condition that tells them apart may be missing. Equal values may be shown once. Entries after “also recorded” stand apart in the source; their conditions may differ. Read-outs that look alike come from different tables or passages of the source. Marks after values point to notes of the source that are not given here. A value given as a limit tells only on which side of the number the result lay.

On to `CC(C)CC(N)=O` [Isovaleramide, isovaleramide], for which the TD50 (in general, the dose at which the toxic effect under study appears in half of the subjects) at 15 min in data set [1] (ip, 15 minutes, read-out: TD50 for rotarod impairment) was found to be 531 mg/kg; in data set [1] (oral, read-out: TD50) it was 1010 mg/kg. For the same molecule, the “Number Showing Toxicity of Eight Mice Tested” value was 0 in the data set with Frings mouse (75 mg/kg i.p., 15 minutes); 0 with Frings mouse (112.5 mg/kg i.p., 15 minutes); 0 with Frings mouse (150 mg/kg i.p., 15 minutes); 1/8 and 1 with Frings mouse (300 mg/kg i.p., 15 minutes); 1 in the data set on Frings mouse (300 mg/kg oral, tested at 15 minutes); 4/8 and 4 in the data set with Frings mouse (600 mg/kg i.p., 15 minutes). The “Number Showing Toxicity of Eight Mice Tested” value in the data set with Frings mouse (600 mg/kg oral, tested at 15 minutes) is 1; in the data set with Frings mouse (1000 mg/kg i.p., 15 minutes), 8/8 and 8; with Frings mouse (1000 mg/kg oral, tested at 15 minutes), 5; with Frings mouse (1500 mg/kg oral, tested at 15 minutes) it was 5; in the data set with Frings mouse (2000 mg/kg oral, tested at 15 minutes, only seven mice tested), 7^d. Besides, in the data set with Frings mouse (doses up to 512 mg/kg i.p. 15 minutes before test), the “rotarod performance in the Frings mouse” value is reported as “did not affect performance significantly”. Also, the “doses at which behavioral toxicity (inability to maintain balance on the rotarod) was displayed” value with Frings mouse (i.p.) is over 300 mg/kg. Further, the “doses at which no notable toxicity was observed” value with Frings mouse (i.p.) was “less than 300 mg/kg”. The “magnitude of the flexor reflex” value in the data set with chronic spinalized rat [2] is reported as “reduce the magnitude of the flexor-reflex responses, at all time points; also recorded: significant decrease in the magnitude of the flexor reflex, comparable to that observed with baclofen”. The “overt behavioral toxicity or motor impairment” value in the data set on chronic spinalized rat [3] is “No overt behavioral toxicity or motor impairment was observed”. Also, the “reduction of spasticity scores” value with chronic spinalized rat [3] (15, 30, 60 and 120 minutes post-administration) is reported as 45-65%. The “spasticity scores by the next day” value in the data set with chronic spinalized rat [3] (1440 minutes (24 hours)) is listed as “essentially returned to baseline values”.
